The NIST ThermoML archive (doi:10.1016/j.jct.2015.05.011)

Columns and labels:
[1] = refractive index (Na D-line) (dimensionless); xn = mol fraction of the nth substance listed; conditions: 298.15 K, 100 kPa, Liquid, Standard Abbe refractometry
[2] = xn = mol fraction of the nth substance listed; conditions: 100 kPa, Liquid; for mass density: Vibrating tube method; for viscosity: Falling or rolling sphere viscometry
[3] = excess molar enthalpy (molar enthalpy of mixing); xn = mol fraction of the nth substance listed; conditions: 100 kPa, Liquid, Flow calorimetry

CCn1cc[n+](C)c1.N#C[C-](C#N)C#N [1-ethyl-3-methyl-1H-imidazolium tricyanomethanide] + O
[1]
Conditions	refractive index
x2 = 0	1.51227
x2 = 0.1084	1.50965
x2 = 0.2059	1.50681
x2 = 0.3058	1.50438
x2 = 0.4145	1.49961
x2 = 0.5128	1.49477
x2 = 0.6095	1.487
x2 = 0.7065	1.4765
x2 = 0.789	1.46324
x2 = 0.9015	1.42697
x2 = 0.9513	1.39433
x2 = 0.9869	1.35455

Conditions	excess molar enthalpy, [3] [kJ/mol]	mass density, [2] [kg/m3]	viscosity, [2] [mPa·s]
288.15 K, x1 = 0.000486	0.00516	999.748	–
288.15 K, x1 = 0.000971	0.0108	1000.38	–
288.15 K, x1 = 0.001456	0.0165	1000.99	–
288.15 K, x1 = 0.001941	0.0222	1001.57	–
288.15 K, x1 = 0.002425	0.0279	1002.13	–
288.15 K, x1 = 0.002908	0.0337	1002.68	–
298.15 K, x1 = 0.000486	0.00598	997.586	–
298.15 K, x1 = 0.000971	0.0124	998.133	–
298.15 K, x1 = 0.001455	0.0188	998.652	–
298.15 K, x1 = 0.00194	0.0252	999.158	–
298.15 K, x1 = 0.002423	0.0316	999.648	–
298.15 K, x1 = 0.002907	0.0379	1000.12	–
298.15 K, x2 = 0	–	1081.38	14
298.15 K, x2 = 0.1084	–	1079.85	11.85
298.15 K, x2 = 0.2059	–	1078.28	10.11
298.15 K, x2 = 0.3058	–	1076.34	8.35
298.15 K, x2 = 0.4145	–	1073.8	7.05
298.15 K, x2 = 0.5128	–	1070.97	5.88
298.15 K, x2 = 0.6095	–	1067.4	4.89
298.15 K, x2 = 0.7065	–	1062.54	3.98
298.15 K, x2 = 0.789	–	1056.44	3.24
298.15 K, x2 = 0.9015	–	1040.72	2.16
298.15 K, x2 = 0.9513	–	1026.4	1.58
298.15 K, x2 = 0.9869	–	1008.32	1.07
308.15 K, x1 = 0.000485	0.00696	994.509	–
308.15 K, x1 = 0.00097	0.0142	994.981	–
308.15 K, x1 = 0.001455	0.0214	995.435	–
308.15 K, x1 = 0.001939	0.0285	995.873	–
308.15 K, x1 = 0.002423	0.0356	996.296	–
308.15 K, x1 = 0.002906	0.0426	996.708	–
318.15 K, x1 = 0.000485	0.0077	990.626	–
318.15 K, x1 = 0.00097	0.0158	991.036	–
318.15 K, x1 = 0.001455	0.0238	991.43	–
318.15 K, x1 = 0.001939	0.0318	991.809	–
318.15 K, x1 = 0.002422	0.0395	992.176	–
318.15 K, x1 = 0.002905	0.0473	992.534	–
